{
  "source": "ChEMBL document CHEMBL3124764",
  "about": "“6-Triazolyl-substituted sulfocoumarins are potent, selective inhibitors of the tumor-associated carbonic anhydrases IX and XII” (Bioorg Med Chem Lett, 2014)",
  "key": {"Carbonic anhydrase 2": {"biological_target": "Carbonic anhydrase 2 (Homo sapiens, UniProt P00918)", "test": "Inhibition of human recombinant carbonic anhydrase 2-mediated CO2 hydration after 6 hrs by stopped-flow assay"}, "Carbonic anhydrase 1": {"biological_target": "Carbonic anhydrase 1 (Homo sapiens, UniProt P00915)", "sequence (P00915 whole entry)": "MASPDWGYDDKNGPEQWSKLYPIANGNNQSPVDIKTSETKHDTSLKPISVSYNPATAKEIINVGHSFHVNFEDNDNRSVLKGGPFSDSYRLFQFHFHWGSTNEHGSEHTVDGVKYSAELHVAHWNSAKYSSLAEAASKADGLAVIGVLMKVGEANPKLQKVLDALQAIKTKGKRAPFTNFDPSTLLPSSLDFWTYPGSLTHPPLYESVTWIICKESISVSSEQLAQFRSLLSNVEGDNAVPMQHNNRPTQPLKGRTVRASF", "test": "Inhibition of human recombinant carbonic anhydrase 1-mediated CO2 hydration after 6 hrs by stopped-flow assay"}, "Carbonic anhydrase 9 [1]": {"biological_target": "T1, Carbonic anhydrase 9 (Homo sapiens, UniProt Q16790)", "test": "Ratio of acetazolamide Ki to compound Ki for human recombinant carbonic anhydrase 9"}, "Carbonic anhydrase 9 [2]": {"biological_target": "T1, Carbonic anhydrase 9", "test": "Inhibition of human recombinant carbonic anhydrase 9-mediated CO2 hydration after 6 hrs by stopped-flow assay"}},
  "data": [
    {"compound": "O=S1(=O)C=Cc2cc(-n3cc(-c4ccc(Cl)cc4)nn3)ccc2O1", "values": [
      {"measurement": "Ki", "setting": "Carbonic anhydrase 2", "value": "> 10", "unit": "µM"},
      {"measurement": "Ki", "setting": "Carbonic anhydrase 1", "value": "> 10", "unit": "µM"},
      {"measurement": "Ratio Ki", "setting": "Carbonic anhydrase 9 [1]", "value": 3}
    ]},
    {"compound": "Nc1ccccc1-c1cn(-c2ccc3c(c2)C=CS(=O)(=O)O3)nn1", "values": [
      {"measurement": "Ki", "setting": "Carbonic anhydrase 2", "value": "> 10", "unit": "µM"},
      {"measurement": "Ki", "setting": "Carbonic anhydrase 1", "value": "> 10", "unit": "µM"},
      {"measurement": "Ki", "setting": "Carbonic anhydrase 9 [2]", "value": 0.0079, "unit": "µM"}
    ]},
    {"compound": "O=S1(=O)C=Cc2cc(-n3nncc3-c3ccc(F)cc3)ccc2O1", "values": [
      {"measurement": "Ki", "setting": "Carbonic anhydrase 2", "value": "> 10", "unit": "µM"},
      {"measurement": "Ki", "setting": "Carbonic anhydrase 1", "value": "> 10", "unit": "µM"}
    ]},
    {"compound": "O=S1(=O)C=Cc2cc(-n3nncc3-c3cccc(C(F)(F)F)c3)ccc2O1", "values": [
      {"measurement": "Ki", "setting": "Carbonic anhydrase 2", "value": "> 10", "unit": "µM"},
      {"measurement": "Ki", "setting": "Carbonic anhydrase 1", "value": "> 10", "unit": "µM"}
    ]},
    {"compound": "O=S1(=O)C=Cc2cc(-n3nncc3-c3ccc(Cl)cc3)ccc2O1", "values": [
      {"measurement": "Ki", "setting": "Carbonic anhydrase 2", "value": "> 10", "unit": "µM"},
      {"measurement": "Ki", "setting": "Carbonic anhydrase 1", "value": "> 10", "unit": "µM"},
      {"measurement": "Ki", "setting": "Carbonic anhydrase 9 [2]", "value": 0.0092, "unit": "µM"}
    ]},
    {"compound": "O=S1(=O)C=Cc2cc(-n3nncc3-c3cccc(F)c3)ccc2O1", "values": [
      {"measurement": "Ki", "setting": "Carbonic anhydrase 2", "value": "> 10", "unit": "µM"},
      {"measurement": "Ki", "setting": "Carbonic anhydrase 1", "value": "> 10", "unit": "µM"},
      {"measurement": "Ki", "setting": "Carbonic anhydrase 9 [2]", "value": 0.0074, "unit": "µM"}
    ]},
    {"compound": "O=S1(=O)C=Cc2cc(-n3cc(-c4cccc(Cl)c4)nn3)ccc2O1", "values": [
      {"measurement": "Ki", "setting": "Carbonic anhydrase 2", "value": "> 10", "unit": "µM"},
      {"measurement": "Ki", "setting": "Carbonic anhydrase 1", "value": "> 10", "unit": "µM"},
      {"measurement": "Ki", "setting": "Carbonic anhydrase 9 [2]", "value": 0.0931, "unit": "µM"}
    ]},
    {"compound": "O=S1(=O)C=Cc2cc(-n3cc(-c4cccc(F)c4)nn3)ccc2O1", "values": [
      {"measurement": "Ki", "setting": "Carbonic anhydrase 2", "value": "> 10", "unit": "µM"},
      {"measurement": "Ki", "setting": "Carbonic anhydrase 1", "value": "> 10", "unit": "µM"}
    ]},
    {"compound": "O=S1(=O)C=Cc2cc(-n3cc(C4CC4)nn3)ccc2O1", "values": [
      {"measurement": "Ki", "setting": "Carbonic anhydrase 2", "value": "> 10", "unit": "µM"},
      {"measurement": "Ki", "setting": "Carbonic anhydrase 1", "value": "> 10", "unit": "µM"}
    ]},
    {"compound": "Nc1ccccc1-c1cnnn1-c1ccc2c(c1)C=CS(=O)(=O)O2", "values": [
      {"measurement": "Ki", "setting": "Carbonic anhydrase 2", "value": "> 10", "unit": "µM"},
      {"measurement": "Ki", "setting": "Carbonic anhydrase 1", "value": "> 10", "unit": "µM"},
      {"measurement": "Ki", "setting": "Carbonic anhydrase 9 [2]", "value": 0.0095, "unit": "µM"}
    ]},
    {"compound": "Nc1cccc(-c2cn(-c3ccc4c(c3)C=CS(=O)(=O)O4)nn2)c1", "values": [
      {"measurement": "Ki", "setting": "Carbonic anhydrase 2", "value": "> 10", "unit": "µM"},
      {"measurement": "Ki", "setting": "Carbonic anhydrase 1", "value": "> 10", "unit": "µM"},
      {"measurement": "Ki", "setting": "Carbonic anhydrase 9 [2]", "value": 0.875, "unit": "µM"}
    ]},
    {"compound": "CC(C)(C)c1cn(-c2ccc3c(c2)C=CS(=O)(=O)O3)nn1", "values": [
      {"measurement": "Ki", "setting": "Carbonic anhydrase 2", "value": "> 10", "unit": "µM"},
      {"measurement": "Ki", "setting": "Carbonic anhydrase 1", "value": "> 10", "unit": "µM"},
      {"measurement": "Ki", "setting": "Carbonic anhydrase 9 [2]", "value": 0.0105, "unit": "µM"}
    ]},
    {"compound": "O=S1(=O)C=Cc2cc(-n3nncc3-c3cccc(Cl)c3)ccc2O1", "values": [
      {"measurement": "Ki", "setting": "Carbonic anhydrase 2", "value": "> 10", "unit": "µM"},
      {"measurement": "Ki", "setting": "Carbonic anhydrase 1", "value": "> 10", "unit": "µM"},
      {"measurement": "Ki", "setting": "Carbonic anhydrase 9 [2]", "value": 0.0088, "unit": "µM"}
    ]},
    {"compound": "O=S1(=O)C=Cc2cc(-n3nncc3-c3ccc(OC(F)(F)F)cc3)ccc2O1", "values": [
      {"measurement": "Ki", "setting": "Carbonic anhydrase 2", "value": "> 10", "unit": "µM"},
      {"measurement": "Ki", "setting": "Carbonic anhydrase 1", "value": "> 10", "unit": "µM"},
      {"measurement": "Ki", "setting": "Carbonic anhydrase 9 [2]", "value": 0.102, "unit": "µM"}
    ]},
    {"compound": "O=S1(=O)C=Cc2cc(-n3cc(-c4ccc(F)cc4)nn3)ccc2O1", "values": [
      {"measurement": "Ki", "setting": "Carbonic anhydrase 2", "value": "> 10", "unit": "µM"},
      {"measurement": "Ki", "setting": "Carbonic anhydrase 1", "value": "> 10", "unit": "µM"}
    ]},
    {"compound": "COc1ccc(-c2cnnn2-c2ccc3c(c2)C=CS(=O)(=O)O3)cc1", "values": [
      {"measurement": "Ki", "setting": "Carbonic anhydrase 2", "value": "> 10", "unit": "µM"},
      {"measurement": "Ki", "setting": "Carbonic anhydrase 1", "value": "> 10", "unit": "µM"},
      {"measurement": "Ki", "setting": "Carbonic anhydrase 9 [2]", "value": 0.0083, "unit": "µM"}
    ]},
    {"compound": "O=S1(=O)C=Cc2cc(-n3cc(-c4ccc(C(F)(F)F)cc4)nn3)ccc2O1", "values": [
      {"measurement": "Ki", "setting": "Carbonic anhydrase 2", "value": "> 10", "unit": "µM"},
      {"measurement": "Ki", "setting": "Carbonic anhydrase 1", "value": "> 10", "unit": "µM"},
      {"measurement": "Ki", "setting": "Carbonic anhydrase 9 [2]", "value": 0.136, "unit": "µM"}
    ]},
    {"compound": "O=S1(=O)C=Cc2cc(-n3nncc3-c3ccc(C(F)(F)F)cc3)ccc2O1", "values": [
      {"measurement": "Ki", "setting": "Carbonic anhydrase 2", "value": "> 10", "unit": "µM"},
      {"measurement": "Ki", "setting": "Carbonic anhydrase 1", "value": "> 10", "unit": "µM"},
      {"measurement": "Ki", "setting": "Carbonic anhydrase 9 [2]", "value": 0.0072, "unit": "µM"}
    ]},
    {"compound": "O=S1(=O)C=Cc2cc(-n3nncc3-c3ccccc3)ccc2O1", "values": [
      {"measurement": "Ki", "setting": "Carbonic anhydrase 2", "value": "> 10", "unit": "µM"},
      {"measurement": "Ki", "setting": "Carbonic anhydrase 1", "value": "> 10", "unit": "µM"},
      {"measurement": "Ki", "setting": "Carbonic anhydrase 9 [2]", "value": 0.0671, "unit": "µM"}
    ]},
    {"compound": "COc1cccc(-c2cnnn2-c2ccc3c(c2)C=CS(=O)(=O)O3)c1", "values": [
      {"measurement": "Ki", "setting": "Carbonic anhydrase 2", "value": "> 10", "unit": "µM"},
      {"measurement": "Ki", "setting": "Carbonic anhydrase 1", "value": "> 10", "unit": "µM"},
      {"measurement": "Ki", "setting": "Carbonic anhydrase 9 [2]", "value": 0.0091, "unit": "µM"}
    ]},
    {"compound": "CC(C)(O)c1cn(-c2ccc3c(c2)C=CS(=O)(=O)O3)nn1", "values": [
      {"measurement": "Ki", "setting": "Carbonic anhydrase 2", "value": "> 10", "unit": "µM"},
      {"measurement": "Ki", "setting": "Carbonic anhydrase 1", "value": "> 10", "unit": "µM"},
      {"measurement": "Ki", "setting": "Carbonic anhydrase 9 [2]", "value": 0.0627, "unit": "µM"}
    ]}
  ]
}
